# Experimental data published in US11142515B2, “Pyrazolyl-ureas as kinase inhibitors” (RESPIVERT LIMITED, priority 2014, dated 2021).
# pIC50: −log10 of the molar value.
# What was measured:
# [1] = biological target: T1, p38 MAPKα isoform (MAPK14) (Homo sapiens, UniProt Q16539); test: p38 MAPKα enzyme inhibition (Z-LYTE FRET); assay type: biochemical; settings: Table 2B, unit inferred; read-out: p38 MAPKα (Enzyme Profile)
# T1 construct: purchased Life Technologies
# Protocol: The enzyme inhibitory activities of compounds disclosed herein were determined by FRET using synthetic peptides labelled with both donor and acceptor fluorophores (Z-LYTE, Life Technologies, Paisley, UK).
# The inhibitory activities of compounds of the invention against the p38 MAPKα isoform (MAPK14: Life Technologies), were evaluated indirectly by determining the level of activation/phosphorylation of the target peptide of the p38 MAPKα down-stream molecule, MAPKAP-K2. The enzyme (40 ng/mL, 2.5 μL) was incubated with the test compound (2.5 μL of either 40 μg/mL, 12 μg/mL, 4 μg/mL, 1.2 μg/mL, 0.4 μg/mL, 0.12 μg/mL, 0.04 μg/mL, 0.012 μg/mL, 0.004 μg/mL or 0.0012 μg/mL) for 2 h at RT. […] Development reagent (protease, 5 μL) was added for 1 h prior to detection in a fluorescence microplate reader (EnVision, Perkin Elmer, Waltham, Mass., USA).
# In all cases, the site-specific protease cleaves non-phosphorylated peptide only and eliminates the FRET signal. Phosphorylation levels of each reaction were calculated using the ratio of coumarin emission (donor) over fluorescein emission (acceptor), for which low ratios indicate high phosphorylation and high ratios indicate low phosphorylation levels.
# p38MAPKγ (MAPK12) = biological target: T2, p38MAPKγ (MAPK12) (Homo sapiens, UniProt P53778); test: p38 MAPKγ enzyme inhibition (Z-LYTE FRET); assay type: biochemical; settings: Table 2B, unit inferred; read-out: p38 MAPKγ (Enzyme Profile)
# T2 construct: purchased Life Technologies
# T2 sequence (P53778 1-367): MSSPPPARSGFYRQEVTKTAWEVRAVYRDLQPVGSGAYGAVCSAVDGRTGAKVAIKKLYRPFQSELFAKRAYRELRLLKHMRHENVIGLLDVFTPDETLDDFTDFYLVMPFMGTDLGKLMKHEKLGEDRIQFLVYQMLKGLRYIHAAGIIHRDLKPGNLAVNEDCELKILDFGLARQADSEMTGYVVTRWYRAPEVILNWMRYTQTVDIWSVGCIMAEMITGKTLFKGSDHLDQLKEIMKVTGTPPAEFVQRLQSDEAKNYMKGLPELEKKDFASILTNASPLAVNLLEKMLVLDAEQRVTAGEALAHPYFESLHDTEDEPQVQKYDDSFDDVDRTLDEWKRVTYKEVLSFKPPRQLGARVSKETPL
# How it was run: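 Enzyme (added at 800 ng/mL) was preincubated 2 h at RT with compound (solutions of 40 to 0.0012 μg/mL), then FRET peptide (8 μM) and ATP (400 μM), both as added, were reacted 1 h at RT. Protease development followed for 1 h; phosphorylation was read as the coumarin/fluorescein emission ratio.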
# T1 sequence (Q16539 whole entry, canonical isoform): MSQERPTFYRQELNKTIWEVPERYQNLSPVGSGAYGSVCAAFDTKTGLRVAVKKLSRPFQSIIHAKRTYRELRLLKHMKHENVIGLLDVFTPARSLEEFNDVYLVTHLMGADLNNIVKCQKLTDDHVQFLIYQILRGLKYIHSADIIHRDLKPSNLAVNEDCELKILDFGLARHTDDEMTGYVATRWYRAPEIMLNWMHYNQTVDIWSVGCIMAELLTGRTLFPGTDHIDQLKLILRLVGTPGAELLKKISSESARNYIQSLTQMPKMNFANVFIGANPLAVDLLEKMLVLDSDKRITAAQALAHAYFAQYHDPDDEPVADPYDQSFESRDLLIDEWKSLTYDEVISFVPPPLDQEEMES
Compound,pIC50 [1],pIC50 (p38MAPKγ (MAPK12))
"Cc1ccc(-n2nc(C(C)(C)C)cc2NC(=O)Nc2ccc(OCc3ccnc(Nc4cncc(NC(C)C)n4)c3)c3ccccc23)cc1 [Example 117, 1-(3-(tert-butyl)-1-(p-tolyl)-1H-pyrazol-5-yl)-3-(4-((2-((6-(isopropylamino)pyrazin-2-yl)amino)pyridin-4-yl)methoxy)naphthalen-1-yl) urea]",7.80,6.82
"Cc1ccc(-n2nc(C(C)(C)C)cc2NC(=O)Nc2ccc(OCc3ccnc(Nc4cncc(NC5CC5)n4)c3)c3ccccc23)cc1 [Example 119, 1-(3-(tert-butyl)-1-(p-tolyl)-1H-pyrazol-5-yl)-3-(4-((2-((6-(cyclopropylamino)pyrazin-2-yl)amino)pyridin-4-yl)methoxy)naphthalen-1-yl)urea]",7.89,6.76
"Cc1ccc(-n2nc(C(C)(C)C)cc2NC(=O)Nc2ccc(OCc3ccnc(Nc4cncc(OCC(C)C)n4)c3)c3ccccc23)cc1 [Example 122, 1-(3-(tert-butyl)-1-(p-tolyl)-1H-pyrazol-5-yl)-3-(4-((2-((6-isobutoxypyrazin-2-yl)amino)pyridin-4-yl)methoxy)naphthalen-1-yl) urea]",5.56,5.06
"Cc1ccc(-n2nc(C(C)(C)C)cc2NC(=O)Nc2ccc(OCc3ccnc(Nc4cnc(C(=O)NCCOC(C)C)cn4)c3)c3ccccc23)cc1 [Example 124, 5-((4-(((4-(3-(3-(tert-butyl)-1-(p-tolyl)-1H-pyrazol-5-yl)ureido)naphthalen-1-yl)oxy)methyl)pyridin-2-yl)amino)-N-(2-isopropoxy-ethyl)pyrazine-2-carboxamide]",6.54,< 4.86
"Cc1ccc(-n2nc(C(C)(C)C)cc2NC(=O)Nc2ccc(OCc3ccnc(Nc4cnc(C(=O)NCCOC(C)(C)C)cn4)c3)c3ccccc23)cc1 [Example 125, N-(2-(tert-butoxy)ethyl)-5-((4-(((4-(3-(3-(tert-butyl)-1-(p-tolyl)-1H-pyrazol-5-yl)ureido)naphthalen-1-yl)oxy)methyl)pyridin-2-yl)amino)pyrazine-2-carboxamide]",6.52,< 4.87
"Cc1ccc(-n2nc(C(C)(C)C)cc2NC(=O)Nc2ccc(OCc3ccnc(Nc4cnc(C(=O)N5CCC5)cn4)c3)c3ccccc23)cc1 [Example 128, 1-(4-((2-((5-(azetidine-1-carbonyl)pyrazin-2-yl)amino)pyridin-4-yl)methoxy)naphthalen-1-yl)-3-(3-(tert-butyl)-1-(p-tolyl)-1H-pyrazol-5-yl)urea]",7.26,< 4.83
"CC(C)c1cccc(-n2nc(C(C)(C)C)cc2NC(=O)Nc2ccc(OCc3ccnc(Nc4cnccn4)c3)c3ccccc23)c1 [Example 131, 1-(3-(tert-butyl)-1-(3-isopropylphenyl)-1H-pyrazol-5-yl)-3-(4-((2-(pyrazin-2-ylamino)pyridin-4-yl)methoxy)naphthalen-1-yl) urea]",7.85,< 4.80
"COCCNC(=O)c1cnc(Nc2cc(COc3ccc(NC(=O)Nc4cc(C(C)(C)C)nn4-c4ccc(OC)c(C)c4)c4ccccc34)ccn2)cn1 [Example 132, 5-((4-(((4-(3-(3-(tert-butyl)-1-(4-methoxy-3-methyl-phenyl)-1H-pyrazol-5-yl)ureido)naphthalen-1-yl)oxy)methyl)pyridin-2-yl)amino)-N-(2-methoxyethyl)pyrazine-2-carboxamide]",7.96,< 4.86
"Cc1ccc(-n2nc(C(C)(C)C)cc2NC(=O)Nc2ccc(OCc3ccnc(Nc4cnc(C(=O)NCCCO)cn4)c3)c3ccccc23)cc1 [Example 134, 5-((4-(((4-(3-(3-(tert-butyl)-1-(p-tolyl)-1H-pyrazol-5-yl)ureido)naphthalen-1-yl)oxy)methyl)pyridin-2-yl)amino)-N-(3-hydroxy-propyl)pyrazine-2-carboxamide]",8.42,7.46

# Further compounds by rising pIC50 [1], results first:
pIC50 [1],pIC50 (p38MAPKγ (MAPK12)),Compound
7.22,6.77,"Cc1ccc(-n2nc(C(C)(C)C)cc2NC(=O)Nc2ccc(OCc3ccnc(Nc4cncc(N5CC(O)C5)n4)c3)c3ccccc23)cc1 [Example 123, 1-(3-(tert-butyl)-1-(p-tolyl)-1H-pyrazol-5-yl)-3-(4-((2-((6-(3-hydroxyazetidin-1-yl)pyrazin-2-yl)amino)pyridin-4-yl)methoxy)naphthalen-1-yl)urea]"
7.28,< 4.82,"COc1ccc(-n2nc(C(C)(C)C)cc2NC(=O)Nc2ccc(OCc3ccnc(Nc4cnc(C)c(C)n4)c3)c3ccccc23)cc1C [Example 135, 1-(3-(tert-butyl)-1-(4-methoxy-3-methylphenyl)-1H-pyrazol-5-yl)-3-(4-((2-((5,6-dimethylpyrazin-2-yl)amino)pyridin-4-yl)methoxy)naphthalen-1-yl) urea]"
7.33,6.73,"Cc1ccc(-n2nc(C(C)(C)C)cc2NC(=O)Nc2ccc(OCc3ccnc(Nc4cnc(C(=O)N5CC[C@H](O)C5)cn4)c3)c3ccccc23)cc1 [Example 126, (S)-1-(3-(tert-butyl)-1-(p-tolyl)-1H-pyrazol-5-yl)-3-(4-((2-((5-(3-hydroxypyrrolidine-1-carbonyl)pyrazin-2-yl)amino)pyridin-4-yl)methoxy)naphthalen-1-yl)urea]"
7.40,< 4.81,"CCc1ncc(Nc2cc(COc3ccc(NC(=O)Nc4cc(C(C)(C)C)nn4-c4ccc(C)cc4)c4ccccc34)ccn2)nc1C [Example 129, 1-(3-(tert-butyl)-1-(p-tolyl)-1H-pyrazol-5-yl)-3-(4-((2-((5-ethyl-6-methylpyrazin-2-yl)amino)pyridin-4-yl)methoxy)naphthalen-1-yl) urea]"
7.42,7.10,"Cc1ccc(-n2nc(C(C)(C)C)cc2NC(=O)Nc2ccc(OCc3ccnc(Nc4cncc(OCCO)n4)c3)c3ccccc23)cc1 [Example 121, 1-(3-(tert-butyl)-1-(p-tolyl)-1H-pyrazol-5-yl)-3-(4-((2-((6-(2-hydroxyethoxy)pyrazin-2-yl)amino)pyridin-4-yl)methoxy)naphthalen-1-yl)urea]"
7.51,5.55,"Cc1ccc(-n2nc(C(C)(C)C)cc2NC(=O)Nc2ccc(OCc3ccnc(Nc4cnc5c(n4)CCC5)c3)c3ccccc23)cc1 [Example 130, 1-(3-(tert-butyl)-1-(p-tolyl)-1H-pyrazol-5-yl)-3-(4-((2-((6,7-dihydro-5H-cyclopenta [b]pyrazin-2-yl)amino)pyridin-4-yl)methoxy)naphthalen-1-yl)urea]"
7.64,5.55,"CCOc1cncc(Nc2cc(COc3ccc(NC(=O)Nc4cc(C(C)(C)C)nn4-c4ccc(C)cc4)c4ccccc34)ccn2)n1 [Example 116, 1-(3-(tert-butyl)-1-(p-tolyl)-1H-pyrazol-5-yl)-3-(4-((2-((6-ethoxypyrazin-2-yl)amino)pyridin-4-yl)methoxy)naphthalen-1-yl)urea]"
8.14,4.99,"COc1ccc(-n2nc(C(C)(C)C)cc2NC(=O)Nc2ccc(OCc3ccnc(Nc4cnc(CO)cn4)c3)c3ccccc23)cc1C [Example 133, 1-(3-(tert-butyl)-1-(4-methoxy-3-methylphenyl)-1H-pyrazol-5-yl)-3-(4-((2-((5-(hydroxymethyl)pyrazin-2-yl)amino)pyridin-4-yl)methoxy)naphthalen-1-yl) urea]"
8.17,7.03,"Cc1ccc(-n2nc(C(C)(C)C)cc2NC(=O)Nc2ccc(OCc3ccnc(Nc4cnc(C(=O)N5CCC(O)CC5)cn4)c3)c3ccccc23)cc1 [Example 127, 1-(3-(tert-butyl)-1-(p-tolyl)-1H-pyrazol-5-yl)-3-(4-((2-((5-(4-hydroxypiperidine-1-carbonyl)pyrazin-2-yl)amino)pyridin-4-yl)methoxy)naphthalen-1-yl) urea]"
8.26,6.94,"Cc1ccc(-n2nc(C(C)(C)C)cc2NC(=O)Nc2ccc(OCc3ccnc(Nc4cncc(N5CCOCC5)n4)c3)c3ccccc23)cc1 [Example 118, 1-(3-(tert-butyl)-1-(p-tolyl)-1H-pyrazol-5-yl)-3-(4-((2-((6-morpholinopyrazin-2-yl)amino)pyridin-4-yl)methoxy)naphthalen-1-yl) urea]"
8.32,6.76,"CNc1cncc(Nc2cc(COc3ccc(NC(=O)Nc4cc(C(C)(C)C)nn4-c4ccc(C)cc4)c4ccccc34)ccn2)n1 [Example 120, 1-(3-(tert-butyl)-1-(p-tolyl)-1H-pyrazol-5-yl)-3-(4-((2-((6-(methylamino)pyrazin-2-yl)amino)pyridin-4-yl)methoxy)naphthalen-1-yl) urea]"
